From patent publication US10562861B2, “Carboxylic acid compounds” (Sumitomo Dainippon Pharma Co., Ltd., priority 2012, dated 2020)

What was measured:
Renca mouse tumour cells = experiment: Tumour growth studies in Renca, a murine syngeneic renal carcinoma tumour model; format: in vivo; conditions: Balb/C mice, Renca s.c., vs 0.5% methylcellulose
Procedure: Experiments were conducted on female mice (Balb/C genotype, at least 5 weeks old). Renca mouse tumour cells (Cancer Chemother Pharmacol. 1995; 36 (1): 7-12) were kindly provided by Dr. T. Fujioka at Department of Urology, Iwate Medical University School of Medicine. Renca mouse tumour cells (5×10^4) were implanted subcutaneously in the flank of mice on day 0. Mice were treated with either drug vehicle (0.5% methylcellulose), the compound of Example 3 (0.3 mg/kg once a week) or the compound of Example 4 (3 mg/kg once a week) administered orally (p. o.) on days 1, 8, and 15. Tumour volumes were assessed at least twice weekly by bilateral vernier caliper measurements.
Tumour growth inhibition from the start of treatment was assessed by comparison of the differences in tumour growth rate between control and the compound of Example 3 treated groups, as shown in FIG. 9.
Tumour growth inhibition from the start of treatment was assessed by comparison of the differences in tumour growth rate between control and the compound of the Example 4 treated groups, as shown in FIG. 10.

CT26 mouse tumour cells = experiment: Survival studies in CT26, a murine syngeneic colon carcinoma tumour model; format: in vivo; conditions: Balb/C mice, CT26 s.c., vs control or RT
Procedure: Experiments were conducted on female mice (Balb/C genotype, at least 5 weeks old). CT26 mouse tumour cells (CRL-2638) were purchased from ATCC. CT26 mouse tumour cells (1×10^6) were implanted subcutaneously in the flank of mice on day 0. Mice in radiotherapy alone (RT) group and combination group were anesthetized and received radiation therapy (2 Gy) at days 7, 8, 9, 10, and 11. Mice in combination group were also treated with a compound of Example 3 (30 mg/kg once a week) administered orally (p.o.) or Example 4 (5 mg/kg once a week) administered intravenously (i. v.) on days 7, 14, 22, and 27. Tumour volumes were assessed at least twice weekly by bilateral vernier caliper measurements. Survival period was determined by the time taken for tumours to reach 4 times the volume at the time of treatment.

Structure (SMILES) | Tumour growth inhibition (Renca mouse tumour cells; 0.3 mg/kg once a week p.o. on days 1, 8, 15, FIG. 9) | Survival period (time for tumours to reach 4 times the volume at treatment) (CT26 mouse tumour cells; RT 2 Gy days 7-11 plus 30 mg/kg once a week p.o., FIG. 12) | Tumour growth inhibition (Renca mouse tumour cells; 3 mg/kg once a week p.o. on days 1, 8, 15, FIG. 10) | Survival period (time for tumours to reach 4 times the volume at treatment) (CT26 mouse tumour cells; RT 2 Gy days 7-11 plus 5 mg/kg once a week i.v., FIG. 13)
CCC[C@@H](CCO)Nc1nc(N)nc(C)c1Cc1ccc(CN(CC(=O)O)CC(F)F)cc1OC [Example 3, (S)-2-((4-((2-amino-4-(1-hydroxyhexan-3-ylamino)-6-methylpyrimidin-5-yl)methyl)-3-methoxybenzyl)(2,2-difluoroethyl)amino)acetic acid] | inhibited tumour growth | survived significantly longer |  | 
CCC[C@@H](CCO)Nc1nc(N)nc(C)c1Cc1ccc(CN(CC(=O)O)CC(F)(F)F)cc1OC [Example 4, (S)-2-((4-((2-amino-4-(1-hydroxyhexan-3-ylamino)-6-methylpyrimidin-5-yl)methyl)-3-methoxybenzyl)(2,2,2-trifluoroethyl)amino)acetic acid] |  |  | inhibited tumour growth | survived significantly longer
